Measurements as given in the supplement of paper PMC10307832.

Experiments:
Experiment in all cases: relative viability (nuclei count vs DMSO), 5 days (fraction); higher = more cells survive
[1] = compound: Cn1cc(-c2cnn3c(N)c(Br)c([C@@H]4CCCNC4)nc23)cn1 + COc1cccc2cc(-c3nc([C@H]4CC[C@H](C(=O)O)CC4)n4ncnc(N)c34)[nH]c12 [OSI-027] (partner 0.5 µM)
Summary of the method: (§1)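 Values are medians from duplicate plates. Each reflects relative viability, defined as the nuclei count of treated wells over that of vehicle wells. Lung cancer cell lines in 1536-well plates were pin-tool dosed one day after seeding with one drug alone or with a fixed anchor-drug dose plus five library-drug doses (not always all listed) in √10 steps, then fixed, stained and imaged at 4× after 5 days.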

[2] = compound: Cn1cc(-c2cnn3c(N)c(Br)c([C@@H]4CCCNC4)nc23)cn1 + C[C@@H](Oc1cc(-c2cnn(C3CCNCC3)c2)cnc1N)c1c(Cl)ccc(F)c1Cl [Crizotinib] (partner 1 µM)
Summary of the method: as §1

[3] = compound: Cn1cc(-c2cnn3c(N)c(Br)c([C@@H]4CCCNC4)nc23)cn1 + N=C(N)NC(=N)NCCc1ccccc1 [Phenformin] (partner 250 µM)
Summary of the method: as §1

[4] = compound: Cn1cc(-c2cnn3c(N)c(Br)c([C@@H]4CCCNC4)nc23)cn1 + CC(=O)Nc1cccc(-n2c(=O)n(C3CC3)c(=O)c3c(Nc4ccc(I)cc4F)n(C)c(=O)c(C)c32)c1 [Trametinib] (partner 0.02 µM)
Summary of the method: as §1

| Cell Line | relative viability ([1]; first compound 0.05 µM) | relative viability ([1]; first compound 0.1581 µM) | relative viability ([1]; first compound 0.5 µM) | relative viability ([1]; first compound 1.581 µM) | relative viability ([1]; first compound 5 µM) | relative viability ([2]; first compound 0.05 µM) | relative viability ([2]; first compound 0.1581 µM) | relative viability ([2]; first compound 0.5 µM) | relative viability ([2]; first compound 1.581 µM) | relative viability ([2]; first compound 5 µM) | relative viability ([3]; first compound 0.05 µM) | relative viability ([3]; first compound 0.1581 µM) | relative viability ([3]; first compound 0.5 µM) | relative viability ([3]; first compound 1.581 µM) | relative viability ([3]; first compound 5 µM) | relative viability ([4]; first compound 0.05 µM) | relative viability ([4]; first compound 0.1581 µM) | relative viability ([4]; first compound 0.5 µM) | relative viability ([4]; first compound 1.581 µM) | relative viability ([4]; first compound 5 µM) |
| --- | --- | --- | --- | --- | --- | --- | --- | --- | --- | --- | --- | --- | --- | --- | --- | --- | --- | --- | --- | --- |
| HCC-366 | 1.03 | 1.19 | 0.945 | 0.959 | 0.952 | 0.53 | 0.737 | 0.474 | 0.405 | 0.209 | 0.617 | 0.67 | 0.618 | 0.558 | 0.507 | 0.388 | 0.311 | 0.301 | 0.284 | 0.286 |
| HCC-827 | 0.731 | 0.907 | 0.71 | 0.715 | 0.705 | 0.929 | 1 | 0.909 | 0.899 | 0.871 | 0.289 | 0.452 | 0.368 | 0.388 | 0.389 | 0.499 | 0.541 | 0.556 | 0.549 | 0.444 |
| HOP-62 | 0.831 | 1.08 | 0.825 | 0.555 | 0.562 | 0.999 | 1.07 | 1.01 | 0.925 | 0.884 | 0.648 | 0.866 | 0.737 | 0.527 | 0.62 | 0.354 | 0.376 | 0.404 | 0.339 | 0.34 |
| IA-LM | – | – | – | – | – | 0.944 | 1.01 | 0.886 | 0.321 | 0.271 | – | – | – | – | – | – | – | – | – | – |
| LC-2-ad | 0.806 | 0.879 | 0.905 | 0.884 | 0.736 | 0.503 | 0.439 | 0.419 | 0.447 | 0.426 | 0.558 | 0.643 | 0.64 | 0.539 | 0.529 | 0.974 | 0.986 | 0.935 | 0.931 | 0.961 |
| LCLC-97TM1 | 0.459 | 0.558 | 0.545 | 0.391 | 0.487 | 0.34 | 0.658 | 0.581 | 0.483 | 0.228 | 0.499 | 0.47 | 0.464 | 0.458 | 0.411 | 0.151 | 0.202 | 0.182 | 0.207 | 0.224 |
| LCLC-103H | 0.433 | 0.43 | 0.516 | 0.405 | 0.389 | 1.04 | 1.11 | 1.13 | 1.03 | 1.1 | 0.297 | 0.338 | 0.364 | 0.3 | 0.299 | 0.641 | 0.7 | 0.717 | 0.677 | 0.684 |
| LK-2 | 0.146 | 0.162 | 0.172 | 0.179 | 0.168 | 0.23 | 0.216 | 0.188 | 0.243 | 0.232 | 0.374 | 0.471 | 0.258 | – | 0.286 | 0.974 | 1.05 | 0.719 | 0.626 | 0.625 |
| LOU-NH91 | 0.752 | 0.711 | 0.684 | 0.727 | 0.701 | 0.727 | 0.724 | 0.739 | 0.713 | 0.626 | 0.668 | 0.657 | 0.679 | 0.706 | 0.562 | 0.804 | 0.776 | 0.751 | 0.749 | 0.665 |
| LU99A | 0.285 | 0.309 | 0.242 | 0.261 | 0.207 | 0.55 | 0.573 | 0.551 | 0.482 | 0.31 | 0.749 | 0.789 | 0.766 | 0.802 | 0.582 | 0.464 | 0.572 | 0.599 | 0.492 | 0.518 |
| LXF-289 | 0.853 | 0.896 | 0.82 | 0.82 | 0.766 | 0.82 | 0.929 | 0.945 | 0.81 | 0.807 | 0.525 | 0.57 | 0.496 | 0.486 | 0.528 | 0.712 | 0.71 | 0.662 | 0.62 | 0.673 |
| NCI-H23 | 0.589 | 0.549 | 0.506 | 0.491 | 0.268 | 0.444 | 0.534 | 0.437 | 0.322 | 0.183 | 0.834 | 0.713 | 0.835 | 0.747 | 0.187 | 0.364 | 0.401 | 0.304 | 0.355 | 0.178 |
| NCI-H522 | 0.344 | 0.685 | 0.748 | 0.681 | 0.661 | – | – | – | – | – | 0.69 | 0.625 | 0.642 | 0.669 | 0.664 | 0.852 | 0.754 | 0.699 | 0.802 | 0.579 |
| NCI-H1395 | 0.606 | 0.574 | 0.631 | 0.487 | 0.338 | – | – | – | – | – | 0.44 | 0.41 | 0.435 | 0.359 | 0.358 | 1.22 | 0.544 | 0.883 | 0.569 | 0.444 |
| NCI-H1563 | 0.737 | 0.779 | 0.691 | 0.711 | 0.703 | 0.78 | 0.812 | 0.933 | 0.782 | 0.8 | 0.593 | 0.658 | 0.642 | 0.614 | 0.605 | – | – | – | – | – |
| NCI-H1648 | 0.249 | 0.235 | – | 0.258 | 0.261 | – | – | – | – | – | – | – | – | – | – | 0.443 | 0.478 | 0.421 | 0.435 | 0.515 |
| NCI-H1703 | – | – | – | – | – | 0.671 | 0.363 | 0.325 | 0.18 | 0.134 | – | – | – | – | – | – | – | – | – | – |
| NCI-H1793 | 0.286 | 0.282 | 0.324 | 0.309 | 0.304 | – | – | – | – | – | 0.322 | 0.465 | 0.435 | 0.328 | 0.252 | 0.451 | 0.36 | 0.367 | 0.481 | 0.458 |
| NCI-H2342 | 0.52 | 0.632 | 0.585 | 0.526 | 0.593 | – | – | – | – | – | 0.578 | 0.6 | 0.682 | 0.533 | 0.593 | 0.801 | 0.9 | 0.682 | 0.835 | 0.777 |
| SW 900 | 0.597 | 0.612 | 0.541 | 0.453 | 0.26 | – | – | – | – | – | 0.656 | 0.776 | 0.726 | 0.428 | 0.228 | 0.772 | 0.746 | 0.946 | 0.753 | 0.816 |
